From the NIST ThermoML archive (doi:10.1021/je800110r)

Conditions: 323.14 K, Liquid, Vibrating tube method

CCCCCCCCCC [decane]
Conditions	mass density [kg/m3]
6233 kPa	712.5
6244 kPa	712.5
6414 kPa	712.6
6459 kPa	712.7
6531 kPa	712.7
6557 kPa	712.8
6576 kPa	712.8
6597 kPa	712.9
6619 kPa	712.7
6725 kPa	712.9
6747 kPa	713
6764 kPa	712.9
6781 kPa	713.1
6809 kPa	713
6826 kPa	713
6855 kPa	713
6870 kPa	713
6893 kPa	713.1
7285 kPa	713.4
7382 kPa	713.6
7397 kPa	713.5
7411 kPa	713.6
7428 kPa	713.5
7445 kPa	713.5
7465 kPa	713.7
7482 kPa	713.5
7509 kPa	713.6
7525 kPa	713.5
7542 kPa	713.8
7557 kPa	713.7
7580 kPa	713.6
7601 kPa	713.7
7618 kPa	713.7
7634 kPa	713.7
7652 kPa	713.7
7670 kPa	713.8
7683 kPa	713.8
7696 kPa	713.7
7715 kPa	713.7
7737 kPa	713.8
7758 kPa	713.9
7774 kPa	713.9
7790 kPa	713.8
7809 kPa	713.9
7828 kPa	713.9
7850 kPa	714
7869 kPa	714
7894 kPa	713.9
7916 kPa	713.9
7935 kPa	714.1
7956 kPa	714
7977 kPa	714.1
7997 kPa	714.1
8016 kPa	714
8033 kPa	714.1
8054 kPa	714.1
8074 kPa	714.1
8097 kPa	714.1
8121 kPa	714.2
8138 kPa	714.2
8158 kPa	714.1
8179 kPa	714.2
8197 kPa	714.3
8218 kPa	714.3
8245 kPa	714.3
8263 kPa	714.3
8284 kPa	714.3
8306 kPa	714.4
8333 kPa	714.4
8348 kPa	714.4
8376 kPa	714.5
8451 kPa	714.3
8476 kPa	714.5
8495 kPa	714.5
8518 kPa	714.6
8543 kPa	714.5
8582 kPa	714.5
8625 kPa	714.6
8654 kPa	714.7
8677 kPa	714.6
8707 kPa	714.7
8738 kPa	714.7
8762 kPa	714.6
8789 kPa	714.7
8813 kPa	714.7
8834 kPa	714.8
8855 kPa	714.8
8876 kPa	714.7
8907 kPa	714.8
8932 kPa	714.8
8957 kPa	714.9
8990 kPa	714.8
9031 kPa	715
9048 kPa	715
9072 kPa	715.1
9095 kPa	715
9118 kPa	715.1
9139 kPa	715
9160 kPa	715.1
9185 kPa	715.1
9212 kPa	715
9231 kPa	715
9255 kPa	715.2
9277 kPa	715.1
9304 kPa	715.3
9344 kPa	715.2
9366 kPa	715.1
9390 kPa	715.1
9415 kPa	715.2
9434 kPa	715.3
9476 kPa	715.4
9504 kPa	715.4
9524 kPa	715.4
9550 kPa	715.4
9576 kPa	715.4
9607 kPa	715.3
9630 kPa	715.4
9653 kPa	715.5
9676 kPa	715.5
9703 kPa	715.4
9721 kPa	715.6
9741 kPa	715.5
9766 kPa	715.5
9789 kPa	715.5
9813 kPa	715.5
9834 kPa	715.6
9852 kPa	715.7
9870 kPa	715.7
9901 kPa	715.7
9920 kPa	715.7
9941 kPa	715.6
9965 kPa	715.8
9990 kPa	715.7
10015 kPa	715.8
10040 kPa	715.9
10068 kPa	715.9
10093 kPa	715.9
10113 kPa	715.9
10141 kPa	715.8
10166 kPa	715.9
10189 kPa	715.8
10208 kPa	715.9
10238 kPa	716
10264 kPa	716
10291 kPa	716
10367 kPa	716.1
10397 kPa	716.1
10421 kPa	716.1
10442 kPa	716.2
10472 kPa	716.2
10493 kPa	716.2
10520 kPa	716.1
10579 kPa	716.2
10608 kPa	716.2
10639 kPa	716.3
10664 kPa	716.2
10686 kPa	716.4
10714 kPa	716.4
10739 kPa	716.4
10771 kPa	716.4
10796 kPa	716.4
10826 kPa	716.4
10852 kPa	716.5
10882 kPa	716.5
10909 kPa	716.5
10931 kPa	716.6
10956 kPa	716.5
10988 kPa	716.6
11010 kPa	716.6
11042 kPa	716.7
11071 kPa	716.7
11103 kPa	716.7
11126 kPa	716.8
11156 kPa	716.7
11185 kPa	716.7
11209 kPa	716.9
11236 kPa	716.8
11259 kPa	716.7
11422 kPa	717
11448 kPa	717
11495 kPa	717
11520 kPa	717
11538 kPa	717.1
11560 kPa	717
11582 kPa	717
11601 kPa	717.2
11626 kPa	717
11645 kPa	717.1
11670 kPa	717.2
11695 kPa	717
11718 kPa	717.2
11739 kPa	717.1
11755 kPa	717.1
11781 kPa	717.2
11813 kPa	717.3
11845 kPa	717.4
11865 kPa	717.2
11891 kPa	717.4
11927 kPa	717.4
11954 kPa	717.4
11974 kPa	717.4
12001 kPa	717.4
12022 kPa	717.4
12046 kPa	717.5
12071 kPa	717.5
12283 kPa	717.7
12299 kPa	717.6
12320 kPa	717.7
12335 kPa	717.6
12350 kPa	717.7
12372 kPa	717.8
12543 kPa	717.9
12558 kPa	717.9
12576 kPa	717.9
12592 kPa	717.9
12612 kPa	718
12628 kPa	717.9
12644 kPa	717.9
12667 kPa	717.9
12689 kPa	718
12714 kPa	718.1
12739 kPa	718.1
12755 kPa	718
12770 kPa	718
12790 kPa	718.3
12807 kPa	718.1
12823 kPa	718.1
12837 kPa	718
12936 kPa	718.2
12949 kPa	718.2
13023 kPa	718.3
13043 kPa	718.3
13073 kPa	718.3
13090 kPa	718.3
13112 kPa	718.3
13128 kPa	718.4
13145 kPa	718.3
13160 kPa	718.4
13180 kPa	718.4
13197 kPa	718.5
13215 kPa	718.4
13228 kPa	718.4
13244 kPa	718.4
13258 kPa	718.4
13272 kPa	718.4
13285 kPa	718.4
13303 kPa	718.6
13314 kPa	718.5
13328 kPa	718.5
13346 kPa	718.4
13361 kPa	718.4
13379 kPa	718.4
13395 kPa	718.6
13413 kPa	718.5
13429 kPa	718.6
13443 kPa	718.6
13457 kPa	718.6
13476 kPa	718.7
13496 kPa	718.6
13510 kPa	718.6
13531 kPa	718.5
13547 kPa	718.7
13565 kPa	718.7
13587 kPa	718.7
13601 kPa	718.6
13622 kPa	718.7
13639 kPa	718.7
13660 kPa	718.8
13677 kPa	718.8
13699 kPa	718.8
13715 kPa	718.9
13732 kPa	718.8
13753 kPa	718.9
13770 kPa	718.9
